Assay results taken from ChEMBL document CHEMBL2010786, “Design and synthesis of benzenesulfonamide derivatives as potent anti-influenza hemagglutinin inhibitors” (ACS Med Chem Lett, 2011).
Values after ≈ are worked out from the molar mass of the structure shown.

Legend:
[1] = Oral bioavailability in CD1 mouse at 10 mg/kg; type: ADME, organism-based; conditions: in vivo
[2] = Solubility of the compound in phosphate buffer at pH 6.5; type: physicochemical

Row | SMILES | bioavailability [1] | solubility [2]
1 | CC1(C)C[C@H](O)C[C@](C)(CNc2cc(Cl)cc(S(N)(=O)=O)c2)C1 | 55% | –
2 | CC1(C)C[C@H](O)C[C@](C)(CNc2ccc(Cl)c(S(N)(=O)=O)c2)C1 | 70% | –
3 | CC1(C)C[C@H](O)C[C@](C)(CNc2cccc(S(N)(=O)=O)c2)C1 (relative stereo) | 75% | 141 µg/mL (≈ 432 µM)
